The values that follow come from patent US5554542A, “Immunoassay for isothiazolones” (Rohm and Haas Company, priority 1993, dated 1996).

The subject of assay [1] is antibodies produced by cell culture 89-147EH9. Briefly: CIEIA for detection of biocides, four inhibitors at several concentrations. Particulars: no inhibitor 515. In kind it is binding, mouse. The procedure: The supernatants from wells with growing colonies of hybridomas were screened using CIEIA. Ninety-six well polystyrene EIA ([…]) plates were coated with 100 μl of 651 conjugated to BSA (651-BSA) for at least two hours at room temperature or 16 hours at 4° C. Unbound material was washed from the wells with five washes of PBS-T. […] The wells then received 50 μl of supernatant from each cell culture, so that each supernatant was reacted with either buffer, 651 or 573 (inhibitors). […] The wells were incubated for 30-60 minutes at room temperature. They were then washed five times with PBS-T to remove unbound material and each well then received 100 μl of a 1 μg/ml solution of biotinylated horse anti-mouse IgG (Vector Laboratories, Burlingame, Calif.), and the assay continued as described for the ELISA, supra.

Assay [2] has as its system anti-651 antibody covalently linked to horseradish peroxidase. Nature of the assay: Colorometric determination of isothiazolones in wood with anti-651-HRP. It is filed as binding. The conditions noted are these: pressure treated Southern Yellow pine wafer, anti-651-HRP 500 ng/ml, ABTS, corrected for background; control wafer 0.002. The procedure:
Southern Yellow pine, which had been pressure treated with a solution containing 4,5-dichloro-2-n-octyl-3-isothiazolone using commercial methods, was cut into wafers (0.5×2.5 cm). These wood wafers were soaked in a solution of 3% nonfat milk for 30 minutes. The wafers were then rinsed briefly with PBS-T, and then exposed to the anti-651 antibody, which is covalently linked to horseradish peroxidase at 500 ng/ml, for 15 minutes. The wafers were then washed twice for 30 minutes each in PBS-T buffer. The bound anti-651-HRP complex was visualized by placing the wafers in a vial containing HRP substrate (ABTS). The appearance of a […] color in the solution indicated the presence of 4,5-dichloro-2-n-octyl-3-isothiazolone. A 200 μl aliquot of the solution in the vial was taken and the absorbance determined at 405 nm. This was compared to a control wood wafer treated in an identical manner but containing no isothiazolone. The absorbance values were then corrected for background.

Take `CNC(=O)CC(=O)O` [NMA, Nmethyl malonamic acid]: the “10 Minute Absorbances × 1000” value in assay [1] (inhibitor concentration 0.08 ppm) is 429; in assay [1] (inhibitor concentration 0.4 ppm), 519; in assay [1] (inhibitor concentration 2 ppm), 496; in assay [1] (inhibitor concentration 10 ppm) it was 518; in assay [1] (inhibitor concentration 50 ppm), 490.
The molecule `CCCCCCCCn1sc(Cl)c(Cl)c1=O` [compound 287, 4,5-dichloro-2-n-octyl-3-isothiazolone] registered an A405 in assay [2] of 0.165.
For the molecule `CCCCCCCCn1sccc1=O` [compound 893, 2-n-octyl-3-isothiazolone], the “10 Minute Absorbances × 1000” value came to 514 in assay [1] (inhibitor concentration 2 ppm), 589 in assay [1] (inhibitor concentration 10 ppm) and 516 in assay [1] (inhibitor concentration 50 ppm).
